Read-outs that look alike come from different tables or passages of the source.
Tests used:
[1] = Biodistribution of radioactivity after i.v. injection in awake rats; assay type: in vivo, rat
Protocol: All animal experiments were approved by the Ethical Committee at our institution. Chronic cannulations of rats (male, Sprague Dawley, 180–250 g) were performed in the abdominal aorta and in the vena cava under general anaesthesia (ketamine 35 mg/kg and medetomidin 0.35 mg/kg) following the procedure described by Lestage. The animals were allowed to recover for a minimum of 4 days before being used for metabolism studies. Most of them were injected with the tracer within the first week after surgery. Some of them were kept up to 4 weeks before injection. Twenty hours before the injection of the tracer, the food was removed from the cage. The arterial line was used for blood sampling and the other for i.v. injection of the tracer. The two lines were flushed with saline a few minutes before use in order to check potency. 14 rats (230–410 g) were injected with 20–325 MBq of n-c-a 2-[^18F]Tyr. The tracer was delivered as a bolus of maximum volume 0.75 ml in 15 s. […]
Radioactivity was measured in weighed fractions of plasma. […] The supernatant was analysed by HPLC. Radioactivity was measured in the organ samples and in one half of the three dissected parts of the brain. […] The supernatant was analysed by HPLC.
Radioactivity measurements of the biological samples and of the fractions collected during HPLC were performed with a NaI counter (Cobra II autogamma, Packard).

cerebral proteins [2] = assay: Incorporation into proteins (TCA precipitation of brain regions) in rats; assay type: in vivo, rat
Protocol: Chronic cannulations of rats (male, Sprague Dawley, 180–250 g) were performed in the abdominal aorta and in the vena cava under general anaesthesia (ketamine 35 mg/kg and medetomidin 0.35 mg/kg) following the procedure described by Lestage [14]. The animals were allowed to recover for a minimum of 4 days before being used for metabolism studies. Most of them were injected with the tracer within the first week after surgery. Some of them were kept up to 4 weeks before injection. Twenty hours before the injection of the tracer, the food was removed from the cage. The arterial line was used for blood sampling and the other for i.v. injection of the tracer. The two lines were flushed with saline a few minutes before use in order to check potency. 14 rats (230–410 g) were injected with 20–325 MBq of n-c-a 2-[^18F]Tyr. The tracer was delivered as a bolus of maximum volume 0.75 ml in 15 s. Samples of blood were obtained via the arterial cannula during the first minutes after the injection and at different times (15, 30, 45, 60 and/or 90 minutes) thereafter. The line was flushed with saline between each sample to avoid any loss of potency and to ensure the homogeneity of the next sample. The animals (n = number of rats) were sacrificed after 30 (n = 2), 60 (n = 5), 90 (n = 3) or 120 (n = 4) minutes. After the final time point, samples of blood were taken and the major organs were dissected. The brain was dissected to obtain striatum, cortex and cerebellum.
Trichloroacetic acid (TCA) was used to precipitate the proteins from biological samples in order to assay the radioactive content associated with proteins and to perform a chromatographic analysis of the radioactive compounds in solution in the supernatant after centrifugation. The solution used for the precipitation was Na2S2O5 100 mg, NaEDTA.2H2O 10 mg, TCA 20 g, dissolved in water up to 100 ml.
Radioactivity was measured in weighed fractions of plasma. For intermediate and final plasma samples, proteins were precipitated with TCA solution and separated by centrifugation (5°C, 5 minutes, 8000 RPM) before counting. The supernatant was analysed by HPLC. Radioactivity was measured in the organ samples and in one half of the three dissected parts of the brain. The second halves were sonicated with water (Sonics & Materials inc., Vibracell VXC-400). The proteins were precipitated with TCA solution and separated by centrifugation (5°C, 5 minutes, 8000 RPM) before counting. The supernatant was analysed by HPLC.

[3] = parameters: method as in PMID 2787848; details: cited from earlier work
cerebral proteins [4] = system: cerebral proteins; parameters: method as in PMID 2787848; details: mouse cortex; cited from earlier work

absolute uptake into rat brain tissue ([1]; awake rats, i.v. bolus, n-c-a tracer): ~ 0.15 %IA/g
passage of the blood-brain-barrier ([1]; rats, brain uptake already high at 30 minutes post injection): rapidly passes the blood-brain-barrier
radioactivity associated with proteins, percentage of the total activity in the tissue (cerebral proteins [2]; rat cerebellum, 60 minutes): 84%
radioactivity associated with proteins, percentage of the total activity in the tissue (cerebral proteins [2]; rat cortex, 60 minutes): 85%
radioactivity associated with proteins, percentage of the total activity in the tissue (cerebral proteins [2]; rat striatum, 60 min): 66%
incorporation into proteins, percentage of the total activity (cerebral proteins [2]; rats, non dopaminergic rich regions, 120 minutes): ~90%
SMILES: N[C@@H](Cc1ccc(O)cc1[18F])C(=O)O [2-[^18F]Tyr, 2-[^18F]fluoro-L-tyrosine]
absolute uptake into brain tissue, mice ([3]; at 40 min): ~ 1.3 %IA/g
absolute uptake into brain tissue, mice ([3]; at 60 min): ~ 2 %IA/g
radioactivity associated with proteins, percentage of the total activity in the tissue (cerebral proteins [4]): 84%

Source: publication PMC2606674, “Metabolism of no-carrier-added 2-[^18F]fluoro-L-tyrosine in rats” (BMC Medical Physics, 2008)
